Where “and” joins values, the source holds several entries; their conditions need not be identical. Equal entries are not always repeated.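 Tested at 5 concentrations; 48 h exposure; 96-well plates; endpoints linearly interpolated, else capped at highest concentration. Here, GI50 denotes the concentration required for 50% inhibition of growth. Definition used: TGI = concentration required for complete inhibition of growth.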
Key:
Assay in all cases: NCI tumour cell line growth inhibition, 48 h
786-0 renal = tested on: 786-0 renal
COLO 205 colon = tested on: COLO 205 colon
MDA-MB-231 breast = tested on: MDA-MB-231 breast
NCI-H522 lung = tested on: NCI-H522 lung
NCI/ADR-RES ovarian = tested on: NCI/ADR-RES ovarian
OVCAR-4 ovarian = tested on: OVCAR-4 ovarian
OVCAR-8 ovarian = tested on: OVCAR-8 ovarian
RXF 393 renal = tested on: RXF 393 renal
UACC-257 melanoma = tested on: UACC-257 melanoma
UO-31 renal = tested on: UO-31 renal

O=C(Oc1ccccc1)C(Br)C(Br)c1ccccc1 (stereo not drawn)
GI50 (786-0 renal): 4590 nM
TGI (786-0 renal): 16.8 µM
GI50 (COLO 205 colon): 1980 nM
TGI (COLO 205 colon): 3.83 µM
GI50 (MDA-MB-231 breast): 14.4 µM
TGI (MDA-MB-231 breast): 29.6 µM
GI50 (NCI-H522 lung): 1690 nM
TGI (NCI-H522 lung): 3.39 µM
GI50 (NCI/ADR-RES ovarian): 3.71 µM
TGI (NCI/ADR-RES ovarian): 19.9 µM
GI50 (OVCAR-4 ovarian): 2.25 µM
TGI (OVCAR-4 ovarian): 5.04 µM
GI50 (OVCAR-8 ovarian): 6.11 µM
TGI (OVCAR-8 ovarian): 21.8 µM
GI50 (RXF 393 renal): 1740 nM
TGI (RXF 393 renal): 3.23 µM
GI50 (UACC-257 melanoma): 2.06 µM
TGI (UACC-257 melanoma): 4.8 µM
GI50 (UO-31 renal): 1720 nM
TGI (UO-31 renal): 3.34 µM

CCc1nn2ncccc2c1-c1ccnc(NC2CC2)n1
GI50 (786-0 renal): > 25000 nM
TGI (786-0 renal): > 25 µM
GI50 (COLO 205 colon): > 25000 nM
TGI (COLO 205 colon): > 25 µM
GI50 (MDA-MB-231 breast): > 25 µM
TGI (MDA-MB-231 breast): > 25 µM
GI50 (NCI-H522 lung): > 25000 nM
TGI (NCI-H522 lung): > 25 µM
GI50 (NCI/ADR-RES ovarian): > 25 µM
TGI (NCI/ADR-RES ovarian): > 25 µM
GI50 (OVCAR-4 ovarian): > 25 µM
TGI (OVCAR-4 ovarian): > 25 µM
GI50 (OVCAR-8 ovarian): > 25 µM
TGI (OVCAR-8 ovarian): > 25 µM
GI50 (RXF 393 renal): > 23400 nM
TGI (RXF 393 renal): > 25 µM
GI50 (UACC-257 melanoma): > 25 µM
TGI (UACC-257 melanoma): > 25 µM
GI50 (UO-31 renal): > 24000 nM
TGI (UO-31 renal): > 25 µM

COc1cc(Nc2ncnc(Nc3ccc4c(n3)NC(=O)C(C)(C)O4)n2)cc(OC)c1OC
GI50 (786-0 renal): 492 nM
TGI (786-0 renal): > 22.6 µM
GI50 (COLO 205 colon): 829 nM
TGI (COLO 205 colon): > 100 µM
GI50 (MDA-MB-231 breast): 1.33 µM
TGI (MDA-MB-231 breast): > 100 µM
GI50 (NCI-H522 lung): 625 nM
TGI (NCI-H522 lung): 11.2 µM
TGI (NCI/ADR-RES ovarian): > 100 µM
TGI (OVCAR-4 ovarian): > 100 µM
GI50 (OVCAR-8 ovarian): 10.9 µM
TGI (OVCAR-8 ovarian): > 100 µM
GI50 (RXF 393 renal): 148 nM
TGI (RXF 393 renal): 0.622 µM
GI50 (UACC-257 melanoma): 3.26 µM
TGI (UACC-257 melanoma): > 100 µM
GI50 (UO-31 renal): 329 nM
TGI (UO-31 renal): > 100 µM

Nc1nc2c(ccc3ccccc32)s1
GI50 (786-0 renal): > 100000 nM
TGI (786-0 renal): > 100 µM
GI50 (COLO 205 colon): > 100000 nM
TGI (COLO 205 colon): > 100 µM
GI50 (MDA-MB-231 breast): > 100 µM
TGI (MDA-MB-231 breast): > 100 µM
GI50 (NCI-H522 lung): > 100000 nM
TGI (NCI-H522 lung): > 100 µM
GI50 (NCI/ADR-RES ovarian): > 100 µM
TGI (NCI/ADR-RES ovarian): > 100 µM
GI50 (OVCAR-4 ovarian): > 100 µM
TGI (OVCAR-4 ovarian): > 100 µM
GI50 (OVCAR-8 ovarian): > 100 µM
TGI (OVCAR-8 ovarian): > 100 µM
GI50 (RXF 393 renal): 37200 nM
TGI (RXF 393 renal): > 100 µM
GI50 (UACC-257 melanoma): > 100 µM
TGI (UACC-257 melanoma): > 100 µM
GI50 (UO-31 renal): 74300 nM
TGI (UO-31 renal): > 100 µM

CNCCCNc1c2ccccc2nc2cccc([N+](=O)[O-])c12
TGI (786-0 renal): 0.0247 µM
TGI (COLO 205 colon): 0.00586 µM
TGI (MDA-MB-231 breast): 0.00522 µM
TGI (NCI-H522 lung): 0.0022 µM
TGI (NCI/ADR-RES ovarian): 0.0346 µM
TGI (OVCAR-4 ovarian): 0.00543 µM
TGI (OVCAR-8 ovarian): 0.0205 µM
TGI (RXF 393 renal): 0.00217 µM
TGI (UACC-257 melanoma): 0.0495 µM
GI50 (UO-31 renal): 15.8 nM
TGI (UO-31 renal): 0.0241 µM and 0.0682 µM

Cc1c(C)c2c(c(C)c1OCC(=O)O)CC[C@@](C)(CCC[C@@H](C)CCC[C@@H](C)CCCC(C)C)O2
GI50 (786-0 renal): 93300 nM
TGI (786-0 renal): 185 µM
GI50 (COLO 205 colon): 53400 nM
TGI (COLO 205 colon): 144 µM
GI50 (MDA-MB-231 breast): 95.2 µM
TGI (MDA-MB-231 breast): 218 µM
GI50 (NCI-H522 lung): 64100 nM
TGI (NCI-H522 lung): 154 µM
GI50 (NCI/ADR-RES ovarian): 78.7 µM
TGI (NCI/ADR-RES ovarian): 210 µM
GI50 (OVCAR-4 ovarian): 59.6 µM
TGI (OVCAR-4 ovarian): 136 µM
GI50 (OVCAR-8 ovarian): 59.4 µM
TGI (OVCAR-8 ovarian): 152 µM
GI50 (RXF 393 renal): 61600 nM
TGI (RXF 393 renal): 137 µM
GI50 (UACC-257 melanoma): 77.2 µM
TGI (UACC-257 melanoma): 183 µM
GI50 (UO-31 renal): 84100 nM
TGI (UO-31 renal): 152 µM

Cc1cn2c(/C=N/N=C(N)N)c(-c3ccncc3)nc2s1
GI50 (786-0 renal): 15800 nM
TGI (786-0 renal): 29.3 µM
GI50 (COLO 205 colon): 17500 nM
TGI (COLO 205 colon): 33.3 µM
GI50 (MDA-MB-231 breast): 52.6 µM
TGI (MDA-MB-231 breast): > 100 µM
GI50 (NCI-H522 lung): 17700 nM
TGI (NCI-H522 lung): 59.7 µM
GI50 (NCI/ADR-RES ovarian): > 100 µM
TGI (NCI/ADR-RES ovarian): > 100 µM
GI50 (OVCAR-4 ovarian): 13.2 µM
TGI (OVCAR-4 ovarian): 32 µM
GI50 (OVCAR-8 ovarian): 14.7 µM
TGI (OVCAR-8 ovarian): 30.9 µM
GI50 (RXF 393 renal): 14900 nM
TGI (RXF 393 renal): 29.8 µM
GI50 (UACC-257 melanoma): 19.5 µM
TGI (UACC-257 melanoma): 38.5 µM
GI50 (UO-31 renal): 18900 nM
TGI (UO-31 renal): 43.7 µM

COc1cccc(NC(=O)c2sc3nc4c(cc3c2N)C(O)CCC4)c1 (stereo not drawn)
GI50 (786-0 renal): 503 nM
TGI (786-0 renal): > 100 µM
GI50 (COLO 205 colon): 226 nM
TGI (COLO 205 colon): 0.87 µM
GI50 (MDA-MB-231 breast): 0.448 µM
TGI (MDA-MB-231 breast): > 100 µM
GI50 (NCI-H522 lung): 105 nM
TGI (NCI-H522 lung): 2.57 µM
GI50 (NCI/ADR-RES ovarian): 0.206 µM
TGI (NCI/ADR-RES ovarian): > 100 µM
GI50 (OVCAR-4 ovarian): 0.775 µM
TGI (OVCAR-4 ovarian): > 100 µM
GI50 (OVCAR-8 ovarian): 0.377 µM
TGI (OVCAR-8 ovarian): > 100 µM
GI50 (RXF 393 renal): 278 nM
TGI (RXF 393 renal): 37.7 µM
GI50 (UACC-257 melanoma): 28.2 µM
TGI (UACC-257 melanoma): > 100 µM
GI50 (UO-31 renal): 607 nM
TGI (UO-31 renal): > 100 µM

CC1=C(C#N)C(/C=C(\Cl)c2ccc(F)cc2)C(C#N)=C(C)N1
GI50 (786-0 renal): > 100000 nM
TGI (786-0 renal): > 100 µM
GI50 (COLO 205 colon): > 100000 nM
TGI (COLO 205 colon): > 100 µM
GI50 (MDA-MB-231 breast): 94.9 µM
TGI (MDA-MB-231 breast): > 100 µM
GI50 (NCI-H522 lung): > 100000 nM
TGI (NCI-H522 lung): > 100 µM
GI50 (NCI/ADR-RES ovarian): > 100 µM
TGI (NCI/ADR-RES ovarian): > 100 µM
GI50 (OVCAR-4 ovarian): > 100 µM
TGI (OVCAR-4 ovarian): > 100 µM
GI50 (OVCAR-8 ovarian): > 100 µM
TGI (OVCAR-8 ovarian): > 100 µM
GI50 (RXF 393 renal): > 100000 nM
TGI (RXF 393 renal): > 100 µM
GI50 (UACC-257 melanoma): > 100 µM
TGI (UACC-257 melanoma): > 100 µM
GI50 (UO-31 renal): > 100000 nM
TGI (UO-31 renal): > 100 µM

CCN(CC)c1ccc(/C=N/NC(=O)CSc2nc3ccccc3c(=O)n2Cc2ccc(S(N)(=O)=O)cc2)c(O)c1
GI50 (786-0 renal): 1840 nM
TGI (786-0 renal): > 100 µM
GI50 (COLO 205 colon): 1510 nM
TGI (COLO 205 colon): > 100 µM
GI50 (MDA-MB-231 breast): 0.643 µM
TGI (MDA-MB-231 breast): > 100 µM
GI50 (NCI-H522 lung): 2400 nM
TGI (NCI-H522 lung): > 100 µM
GI50 (NCI/ADR-RES ovarian): > 100 µM
TGI (NCI/ADR-RES ovarian): > 100 µM
GI50 (OVCAR-4 ovarian): 0.311 µM
TGI (OVCAR-4 ovarian): > 100 µM
GI50 (OVCAR-8 ovarian): 0.932 µM
TGI (OVCAR-8 ovarian): > 100 µM
GI50 (RXF 393 renal): 2500 nM
TGI (RXF 393 renal): > 100 µM
GI50 (UACC-257 melanoma): 3.03 µM
TGI (UACC-257 melanoma): > 100 µM
GI50 (UO-31 renal): 2890 nM
TGI (UO-31 renal): > 100 µM

NC(CSC(c1ccccc1)(c1ccccc1)c1ccc(F)cc1)C(=O)O (stereo not drawn)
GI50 (786-0 renal): 2920 nM
TGI (786-0 renal): > 78.9 µM
GI50 (COLO 205 colon): 231 nM
TGI (COLO 205 colon): 0.667 µM
GI50 (MDA-MB-231 breast): 0.326 µM
TGI (MDA-MB-231 breast): 5.5 µM
GI50 (NCI-H522 lung): 300 nM
TGI (NCI-H522 lung): 0.704 µM
GI50 (NCI/ADR-RES ovarian): 2.98 µM
TGI (NCI/ADR-RES ovarian): 19.2 µM
GI50 (OVCAR-4 ovarian): 9.62 µM
TGI (OVCAR-4 ovarian): > 100 µM
GI50 (OVCAR-8 ovarian): 0.493 µM
TGI (OVCAR-8 ovarian): 41.7 µM
GI50 (RXF 393 renal): 414 nM
GI50 (UACC-257 melanoma): 0.635 µM
TGI (UACC-257 melanoma): > 100 µM
GI50 (UO-31 renal): 14100 nM
TGI (UO-31 renal): > 100 µM

CCc1nc2cc(/C=C/C(=O)NO)ccc2c(=O)n1CCc1ccc(OC)cc1
GI50 (786-0 renal): 2310 nM
TGI (786-0 renal): 6.28 µM
GI50 (COLO 205 colon): 1940 nM
TGI (COLO 205 colon): 5.13 µM
GI50 (MDA-MB-231 breast): 2.31 µM
TGI (MDA-MB-231 breast): 7.66 µM
GI50 (NCI-H522 lung): 1430 nM
TGI (NCI-H522 lung): 4.66 µM
GI50 (NCI/ADR-RES ovarian): 1.35 µM
TGI (NCI/ADR-RES ovarian): 12.3 µM
GI50 (OVCAR-4 ovarian): 2.96 µM
TGI (OVCAR-4 ovarian): 58.7 µM
GI50 (OVCAR-8 ovarian): 2.27 µM
TGI (OVCAR-8 ovarian): 15.5 µM
GI50 (RXF 393 renal): 1740 nM
TGI (RXF 393 renal): 4.74 µM
GI50 (UACC-257 melanoma): 2.93 µM
TGI (UACC-257 melanoma): 9.33 µM
GI50 (UO-31 renal): 1500 nM
TGI (UO-31 renal): 5.13 µM

Source: PubChem BioAssay (NCI)
